# Results from publication PMC10363032 (Cancer Chemotherapy and Pharmacology, 2023).
# Experiment: safety and tolerability, adverse events (CTCAE version 4.03) in patients
# [1] = Adavosertib n = 30, Adavosertib + cocktail n = 26
# Protocol: Safety was appraised throughout the study by the assessment of clinical and laboratory adverse events (AEs; graded by Common Terminology Criteria for Adverse Events [CTCAE], version 4.03), physical examination, and evaluation of vital signs and laboratory data (clinical chemistry and hematology).
# Patients were evaluated according to the treatment received.
smiles,measurement,setting,value
C=CCn1c(=O)c2cnc(Nc3ccc(N4CCN(C)CC4)cc3)nc2n1-c1cccc(C(C)(C)O)n1 [adavosertib],"Acute kidney injury (causally related), any grade",[1],1 (3.3) Number of patients (%)
same,"Acute kidney injury (causally related), grade ≥3",[1],1 ( 3. 3) Number of patients (%)
same,"Anemia (causally related), any grade",[1],0 Number of patients (%)
same,"Anemia (causally related), grade ≥3",[1],0 Number of patients (%)
same,"Any AE (causally related), any grade",[1],11 (36.7) Number of patients (%)
same,"Any AE (causally related), grade ≥3",[1],4 (13.3) Number of patients (%)
same,"Blood and lymphatic system disorders (causally related), any grade",[1],2 ( 6. 7) Number of patients (%)
same,"Blood and lymphatic system disorders (causally related), grade ≥3",[1],1 (3.3) Number of patients (%)
same,"Blood creatinine increased (causally related), any grade",[1],0 Number of patients (%)
same,"Blood creatinine increased (causally related), grade ≥3",[1],0 Number of patients (%)
same,"Decreased appetite (causally related), any grade",[1],0 Number of patients (%)
same,"Decreased appetite (causally related), grade ≥3",[1],0 Number of patients (%)
same,"Dehydration (causally related), any grade",[1],1 (3.3) Number of patients (%)
same,"Dehydration (causally related), grade ≥3",[1],1 (3.3) Number of patients (%)
same,"Diarrhea (causally related), any grade",[1],10 (33.3) Number of patients (%)
same,"Diarrhea (causally related), grade ≥3",[1],3 (10.0) Number of patients (%)
same,"Dizziness (causally related), any grade",[1],0 Number of patients (%)
same,"Dizziness (causally related), grade ≥3",[1],0 Number of patients (%)
same,"Fatigue (causally related), any grade",[1],0 Number of patients (%)
same,"Fatigue (causally related), grade ≥3",[1],0 Number of patients (%)
same,"Flushing (causally related), any grade",[1],0 Number of patients (%)
same,"Flushing (causally related), grade ≥3",[1],0 Number of patients (%)
same,"Gastrointestinal disorders (causally related), any grade",[1],11 (36.7) Number of patients (%)
same,"Gastrointestinal disorders (causally related), grade ≥3",[1],3 (10.0) Number of patients (%)
same,"General disorders and administration site conditions (causally related), any grade",[1],0 Number of patients (%)
same,"General disorders and administration site conditions (causally related), grade ≥3",[1],0 Number of patients (%)
same,"Hypokalemia (causally related), any grade",[1],1 (3.3) Number of patients (%)
same,"Hypokalemia (causally related), grade ≥3",[1],1 (3.3) Number of patients (%)
same,"Investigations (causally related), any grade",[1],2 (6.7) Number of patients (%)
same,"Investigations (causally related), grade ≥3",[1],0 Number of patients (%)
same,"Metabolism and nutrition disorders (causally related), any grade",[1],2 (6.7) Number of patients (%)
same,"Metabolism and nutrition disorders (causally related), grade ≥3",[1],2 ( 6. 7) Number of patients (%)
same,"Muscle spasms (causally related), any grade",[1],0 Number of patients (%)
same,"Muscle spasms (causally related), grade ≥3",[1],0 Number of patients (%)
same,"Musculoskeletal and connective tissue disorders (causally related), any grade",[1],0 Number of patients (%)
same,"Musculoskeletal and connective tissue disorders (causally related), grade ≥3",[1],0 Number of patients (%)
same,"Nasal ulcer (causally related), any grade",[1],0 Number of patients (%)
same,"Nasal ulcer (causally related), grade ≥3",[1],0 Number of patients (%)
same,"Nausea (causally related), any grade",[1],3 (10.0) Number of patients (%)
same,"Nausea (causally related), grade ≥3",[1],1 (3.3) Number of patients (%)
same,"Nervous system disorders (causally related), any grade",[1],0 Number of patients (%)
same,"Nervous system disorders (causally related), grade ≥3",[1],0 Number of patients (%)
same,"Neutropenia (causally related), any grade",[1],1 (3.3) Number of patients (%)
same,"Neutropenia (causally related), grade ≥3",[1],1 (3.3) Number of patients (%)
same,"Pancreatitis (causally related), any grade",[1],1 (3.3) Number of patients (%)
same,"Pancreatitis (causally related), grade ≥3",[1],1 (3.3) Number of patients (%)
same,"Renal and urinary disorders (causally related), any grade",[1],1 (3.3) Number of patients (%)
same,"Renal and urinary disorders (causally related), grade ≥3",[1],1 (3.3) Number of patients (%)
same,"Respiratory, thoracic and mediastinal disorders (causally related), any grade",[1],0 Number of patients (%)
same,"Respiratory, thoracic and mediastinal disorders (causally related), grade ≥3",[1],0 Number of patients (%)
same,"Stomatitis (causally related), any grade",[1],0 Number of patients (%)
same,"Stomatitis (causally related), grade ≥3",[1],0 Number of patients (%)
same,"Thrombocytopenia (causally related), any grade",[1],1 (3.3) Number of patients (%)
same,"Thrombocytopenia (causally related), grade ≥3",[1],0 Number of patients (%)
same,"Vascular disorders (causally related), any grade",[1],0 Number of patients (%)
same,"Vascular disorders (causally related), grade ≥3",[1],0 Number of patients (%)
same,"Vomiting (causally related), any grade",[1],6 (20.0) Number of patients (%)
same,"Vomiting (causally related), grade ≥3",[1],1 (3.3) Number of patients (%)
same,"Weight decreased (causally related), any grade",[1],2 (6.7) Number of patients (%)
same,"Weight decreased (causally related), grade ≥3",[1],0 Number of patients (%)
same,"Acute kidney injury (causally related), any grade",Total (n = 30),1 (3.3) Number of patients (%)
same,"Acute kidney injury (causally related), grade ≥3",Total (n = 30),1 (3.3) Number of patients (%)
same,"Anemia (causally related), any grade",Total (n = 30),1 (3.3) Number of patients (%)
same,"Anemia (causally related), grade ≥3",Total (n = 30),1 (3.3) Number of patients (%)
same,"Any AE (causally related), any grade",Total (n = 30),19 (63.3) Number of patients (%)
same,"Any AE (causally related), grade ≥3",Total (n = 30),6 (20.0) Number of patients (%)
same,"Blood and lymphatic system disorders (causally related), any grade",Total (n = 30),4 (13.3) Number of patients (%)
same,"Blood and lymphatic system disorders (causally related), grade ≥3",Total (n = 30),3 (10.0) Number of patients (%)
same,"Blood creatinine increased (causally related), any grade",Total (n = 30),1 (3.3) Number of patients (%)
same,"Blood creatinine increased (causally related), grade ≥3",Total (n = 30),0 Number of patients (%)
same,"Decreased appetite (causally related), any grade",Total (n = 30),1 (3.3) Number of patients (%)
same,"Decreased appetite (causally related), grade ≥3",Total (n = 30),0 Number of patients (%)
same,"Dehydration (causally related), any grade",Total (n = 30),2 (6.7) Number of patients (%)
same,"Dehydration (causally related), grade ≥3",Total (n = 30),1 (3.3) Number of patients (%)
same,"Diarrhea (causally related), any grade",Total (n = 30),14 (46.7) Number of patients (%)
same,"Diarrhea (causally related), grade ≥3",Total (n = 30),3 (10.0) Number of patients (%)
same,"Dizziness (causally related), any grade",Total (n = 30),2 (6.7) Number of patients (%)
